In US11098045B2, “Haloallylamine indole and azaindole derivative inhibitors of lysyl oxidases and uses thereof” (PHARMAXIS LTD., priority 2016, dated 2021):
Counter-ions that a name gives are not always drawn.

How the values were obtained:
[1] = system: Fibroblasts from confirmed cases of IPF; experiment: In vitro fibroblastic foci model of IPF, collagen cross-link formation; assay type: cell-based; details: six weeks culture with TGF-β1; FIGS. 7a and 7b
Text: Reduction of Collagen Cross-Link Formation in an In Vitro Fibroblastic Foci Model of IPF
The lung tissue of patients with idiopathic pulmonary fibrosis (IPF) is characterised by dense collections of myofibroblasts and extracellular matrix (ECM) termed ‘fibroblastic foci’. Using a novel in vitro model of fibroblastic foci (Jones et al., AJRCCM 191; 2015:A4912) the formation of lysyl oxidase (LOX) mediated collagen cross-links and the effects of the non-selective LOX inhibitor β-aminopropionitrile (BAPN) as well lysyl oxidase like-2 (LOXL2)-selective inhibitors were investigated.
Cultures of primary fibroblasts were grown out from clinical diagnostic biopsies of fibrotic lung and stored in liquid nitrogen. […]
To quantify collagen cross-links (Robins Biochem Soc Trans 2007; 35(5): 849-852; Saito et al Anal. Biochem. 1997; 253: 26-32; Sims, Avery & Bailey Methods in Molecular Biology 2000; vol 139: 11-26), cultures were treated with potassium borohydride to stabilise the reducible immature cross-links, and hydrolysed in 6N HCl at 100° C. for 16 hr. Total collagen content was assessed by hydroxyproline assay. Immature cross-links were assessed by LC/MS/MS and mature pyridinoline cross-links by ELISA. Cross-link data is expressed as moles of cross-link per mole collagen. […]

[2] = system: Bleomycin induced lung fibrosis; experiment: Bleomycin induced lung fibrosis model; assay type: in vivo; details: mouse, intranasal bleomycin; 15 mg/kg
Experimental: Inhibition of Bleomycin Induced Lung Fibrosis
Bleomycin induced lung fibrosis in rodents is a widely accepted experimental model to determine the anti-fibrotic activity of therapeutic agents.
Fibrosis is induced by intranasal administered of bleomycin sulphate at a dose of 0.05 U/mouse in a total volume of 50 uL PBS (see Corbel, M., et al Inhibition of bleomycin-induced pulmonary fibrosis in mice by the matrix metalloproteinase inhibitor batimastat J Pathol. 2001 April; 193(4):538-45.) Compound 12 is given 0.1-100 mg/Kg throughout the period of the experimental procedure or 7 days after bleomycin administration and then throughout the entire study.
Formalin fixed lungs sections stained with haematoxylin and eosin are assessed for fibrosis as per the scale outlined by Ashcroft et al (Simple method of estimating severity of pulmonary fibrosis on a numerical scale J Clin Pathol 1988; 41:467-470).

[3] = system: Streptozotocin induced diabetic nephropathy; experiment: Streptozotocin induced diabetic nephropathy model; assay type: in vivo, mouse; details: diabetic eNOS knockout mice, 24 weeks treatment, 0.1-100 mg/Kg
Text: Inhibition of Streptozotocin Induced Diabetic Nephropathy
Streptozotocin (STZ)-induced diabetic nephropathy is commonly used for creating rodent models of type 1 diabetes which develop renal injury, due to pancreatic cell damage with similarities to human diabetic nephropathy.
This model can be established for investigating anti-fibrotic effects of compounds in the development of kidney fibrosis.
Diabetes is induced in eNOS knockout mice on C57BL/6 background by intraperitoneal STZ injection (55 mg/kg in 0.1 M citrate buffer) in mice of 6-9 weeks of age (see Huang C et al, Blockade of KCa3.1 ameliorates renal fibrosis through a TGF-b1/Smad pathway in diabetic mice. Diabetes, 2013 62(8):2923-2934).
Blood sugar level (BSL) is determined by tail vein blood. Mice with BSL>16 mmol/L two weeks post STZ injection are considered diabetic. Treatment with Compound 12 is carried out for 24 weeks from diagnosis of diabetes at a dose of 0.1-100 mg/Kg.

[4] = system: CCl4 induced liver fibrosis; experiment: CCl4 induced liver fibrosis model; assay type: in vivo, rat; details: rats, oral CCl4 for 6 weeks; 0.1-100 mg/Kg; compared with vehicle-treated group
Experimental: Inhibition of CCl4 Induced Liver Fibrosis
An analysis of the use of LOXL2 inhibitors to treat inflammatory/fibrotic diseases is performed through the use of a CCl4 induced liver fibrosis model. Liver injury is frequently followed by complete parenchymal regeneration due to regenerative potency of hepatocytes. Continuous liver injury due to the administration of CCl4 leads to extracellular matrix accumulation, accompanied by recurrent hepatocyte necrosis, inflammation, and regenerative processes, causing liver fibrosis and consequently liver cirrhosis (see Natsume, M., et al., Attenuated liver fibrosis and depressed serum albumin levels in carbon tetrachloride-treated IL-6-deficient mice. J. Leukoc. Biol., 1999, 66, 601-608 also See Yao, Q. Y., et al. Inhibition by curcumin of multiple sites of the transforming growth factor-beta1 signalling pathway ameliorates the progression of liver fibrosis induced by carbon tetrachloride in rats. BMC Complement Altern Med. 2012 Sep. 16; 12(1):156.)
Rats are administered orally with CCl4 at a concentration of 0.25 μL/g in olive oil, 3 times per week for 6 weeks. Compound 25 is given 0.1-100 mg/Kg throughout the period of the experimental procedure or only 3 weeks after CCl4 administration and then throughout the entire study. […]

[5] = system: Myocardial infarction induced fibrosis; experiment: Myocardial infarction induced fibrosis model; assay type: in vivo, mouse; details: mice, 0.1-100 mg/Kg once a day by oral gavage; FIG. 5
Text: Inhibition of Myocardial Infarction Induced Fibrosis
Carotic ligation is a widely accepted experimental model to induce cardiac fibrosis and to determine the anti-fibrotic activity of therapeutic agents.
In mice, the chest is opened via a left thoracotomy. The left coronary artery is identified visually using a stereo microscope, and a 7-0 suture is placed around the artery 1-2 mm below the left auricle. Permanent occlusion of the left coronary artery resulted from its ligation with the suture. Myocardial ischemia was confirmed by pallor in heart color and ST-segment elevation. (see Parajuli et al. Phosphatase PTEN is critically involved in post-myocardial infarction remodeling through the Akt/interleukin-10 signaling pathway Basic Res Cardiol (2012) 107:248).
Mice were subjected to sham or carotic ligation surgery. At 24 hrs post-surgery, echocardiography was performed on the mice. Mice were treated with compound 25 0.1-100 mg/Kg once a day for 21 (7 days after carotic ligation) or 28 days or saline as vehicle controls by oral gavage. At the end of the experiment, echocardiography was repeated to assess left ventricular function and remodeling. Then mice were euthanized for heart collection. Each heart was photographed and fixed with 10% formalin. Hearts were sectioned for Masson's trichrome stain to measure fibrosis (See FIG. 5).

[6] = system: Streptozotocin and high fat diet induced liver fibrosis; experiment: Streptozotocin and high fat diet induced liver fibrosis (STAM model); assay type: in vivo, mouse; details: STAM mice, daily oral gavage 10-30 mg/kg; FIG. 6
Experimental: Streptozotocin and High Fat Diet Induced Liver Fibrosis
High fat/carbohydrate diet induced liver fibrosis is the most common reason for liver dysfunction and ultimately liver failure. NASH is induced in male mice by a single subcutaneous injection of 200 μg streptozotocin solution 2 days after birth and feeding with high fat diet after 4 weeks of age (STAM™ model).
LOXL2 inhibitor compound 112 was administered by daily oral gavage at doses between 10-30 mg/kg 8 weeks after streptozotocin application. Mice were sacrificed after NASH had been established and whole blood samples were taken via cardiac puncture. Liver samples were collected and washed with cold saline. Liver weight was measured. The left lateral, right and caudate lobes of livers were snap frozen in liquid nitrogen and stored at −80° C. For HE staining, sections were cut from paraffin blocks of liver tissue prefixed in Bouin's solution and stained with Lillie-Mayer's Hematoxylin and eosin solution. NAFLD Activity score (NAS) was calculated according to the criteria of Kleiner (Kleiner D E. et al., Design and validation of a histological scoring system for nonalcoholic fatty liver disease. Hepatology, 2005; 41:1313). To visualize collagen deposition, Bouin's fixed liver sections were stained using picro-Sirius red solution and the area of fibrosis was quantified (See FIG. 6).

For N#CCCN [BAPN, β-aminopropionitrile, reference compound], the “collagen cross-link formation (immature and mature cross-links)” value [1] was “reduced cross-link formation in a concentration dependent manner”.

CCOC(=O)c1ccc2c(c1)c(-c1cccc(S(=O)(=O)N(C)C)c1)c(C)n2C/C(F)=C/CN [Compound 12, (Z)-ethyl 1-(4-amino-2-fluorobut-2-en-1-yl)-3-(3-(N,N-dimethylsulfamoyl)phenyl)-2-methyl-1H-indole-5-carboxylate] was tested, and the “Ashcroft score in the lungs” value [2] was “significantly reduced this score”, the “kidney function by albumin/creatinine ratio quantification” value [3] was “significant improvement in kidney function” and the “reduction of fibrosis by Masson's Trichrome staining” value ([3]; compared with vehicle-treated group) was “up to 50%”.

For Cc1c(-c2cccc(S(=O)(=O)N(C)C)c2)c2ncccc2n1C/C(F)=C/CN [Compound 25, (Z)-3-(1-(4-amino-2-fluorobut-2-en-1-yl)-2-methyl-1H-pyrrolo[3,2-b]pyridin-3-yl)-N,N-dimethylbenzenesulfonamide Dihydrochloride], the “reduction of fibrosis in the liver by sirius red staining with quantification” value [4] was “up to 50%” and the “fibrosis after ligation (Masson's trichrome stain)” value [5] was “reduce fibrosis”.

For Cc1ccc2c(n1)c(-c1cccc(S(C)(=O)=O)c1)c(C)n2C/C(F)=C/CN [Compound 112, (Z)-4-(2,5-dimethyl-3-(3-(methylsulfonyl)phenyl)-1H-pyrrolo[3,2-b]pyridin-1-yl)-3-fluorobut-2-en-1-amine Dihydrochloride], the “liver fibrosis (picro-Sirius red area of fibrosis)” value [6] was “reduce liver fibrosis” and the “collagen cross-link formation (immature and mature cross-links)” value [1] was “reduced cross-link formation in a concentration dependent manner”.
